Counter-ions that a name gives are not always drawn.
Assays:
human 5-HT5A receptor = target: T1, human 5-HT5A receptor (Homo sapiens, UniProt P47898); experiment: Test on a human 5-HT5A receptor binding inhibition ([3H]5-CT); conditions: membrane from HEK293 cells for forced expression of human 5-HT5A receptor; Ki calculated from IC50 and Kd of [3H]5-CT (4.95 nM)
T1 construct: expressed in transfected cells; membranes used
Procedure, shortened: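 Membranes from HEK293 cells stably expressing human 5-HT5A, preincubated with compound 15 min at room temperature, then 2 nM [3H]5-CT added (stock solution), 37 °C for 60 min; filter-bound radioactivity counted. IC50 versus 1 μM 5-CT as full inhibition; Ki via Cheng–Prusoff using Kd 4.95 nM.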

[1] = test system: mouse in which hyperactivity was caused by methamphetamine (MAP) or MK-801; experiment: Improvement effect on increase in motion induced by methamphetamine or MK-801 in mice; format: in vivo; conditions: male ICR mouse; compound oral at a dose of 0.1 mg/kg; MK-801 0.3 mg/kg i.p.; motion for 60 minutes; P<0.05
Description: The improvement effect of compound of formula (I) was evaluated by measuring the quantity of motion by IR irradiation when a compound was administered to a mouse in which hyperactivity was caused by methamphetamine (hereinafter, simply referred to as “MAP”) or MK-801, known as an animal model of schizophrenia.
The animal was taken out of the breeding cage, orally administered with a compound to be tested, and then placed into a cage for breeding. After 30 minutes, the animal was put into a cage for measurement, and motion with the compound to be tested alone was measured. After 30 to 90 minutes, the animal was taken out, and intraperitoneally administered with a drug for increasing the motion (MAP; 1 mg/kg or MK-801; 0.3 mg/kg, dissolved in a physiological saline, respectively). Then, motion for a certain period of time (60 minutes) was measured by using a motion measurement device
(CompACT AMS from Muromachi Kikai Co., Ltd.) by means of an infrared sensor.
For normal mouse (a mouse administered with physiological saline) and mouse administered with a drug for increasing the motion, a Student's T test was performed for evaluation for each interval. For a mouse group administered with the compound to be tested, an assay was performed using a solvent (vehicle) group and a Dunnett's T test. […]

T1 sequence (P47898 whole entry): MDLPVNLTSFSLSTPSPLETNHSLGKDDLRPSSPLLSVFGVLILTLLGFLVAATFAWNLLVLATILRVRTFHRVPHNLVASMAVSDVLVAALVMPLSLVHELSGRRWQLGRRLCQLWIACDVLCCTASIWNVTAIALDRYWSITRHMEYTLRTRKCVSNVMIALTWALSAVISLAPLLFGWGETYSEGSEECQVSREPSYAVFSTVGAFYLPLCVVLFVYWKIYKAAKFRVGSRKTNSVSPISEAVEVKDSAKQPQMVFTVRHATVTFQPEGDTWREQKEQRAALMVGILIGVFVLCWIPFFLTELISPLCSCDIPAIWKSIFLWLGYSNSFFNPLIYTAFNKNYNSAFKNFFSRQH

Ki (human 5-HT5A receptor): 0.96 nM
SMILES: NC(N)=NC(=O)c1ccc2cccc(-c3c(F)cccc3Cl)c2c1 [Example 1, 8-(2-chloro-6-fluorophenyl)-N-(diaminomethylene)-2-naphthamide hydrochloride]
inhibition of hyperactivity caused by MK-801 [1]: significantly inhibited

Source: patent US20110306621A1, “ACYLGUANIDINE DERIVATIVES” (priority 2009, published 2011)
